Laboratory results: patent US6632981B1, “DNA sequences encoding polypeptides having beta-1,3-glucanase activity” (Novartis Finance Corporation, priority 1988, dated 2003)

Legend:
[1] = tested on: cucumber chitinase protein; assay: Cucumber chitinase ELISA in transgenic plants carrying cucumber chitinase genomic constructs after leaf treatment; format: in vivo, tobacco; parameters: key: —: Indicates that sample has no detectable level of chitinase protein
Procedure: Once the transgenic plants are transferred to soil, they are grown 4-5 weeks before treatment. The following solutions are applied to the leaves with sterile paintbrushes:
3. Methyl benzo-1,2,3-thiadiazole-7-carboxylate. The solution is made by resuspending a wettable powder containing a formulation of the chemical with 25% active ingredient in sterile water at a concentration of 1 mg/ml.
4. Methyl 2,6-dichloroisonicotinate, prepared as above. Alternatively, 30 ul of 10 mM sodium phosphate buffer, pH 7.0, or 30 ul of the same buffer containing tobacco mosaic virus (50-100 pfu/30 ul) is applied to the leaves which have been sprinkled with carborundum. The buffers are distributed over the whole treated leaf by gentle rubbing.
The plants are allowed to continue to grow for seven days. The treated leaves are then harvested, frozen in liquid nitrogen and stored at −80° C. until they are assayed.
Frozen leaf tissue is ground in a mortar with a pestle in the presence of liquid nitrogen to produce a fine powder. 0.33 g of each tissue sample is added to 1 ml extraction buffer (50 mM Tris-HCl, pH 8.5, 0.2M 2-mercaptoethanol, 2 mM phenyl methyl sulfonyl fluoride, 2 mM benzamidine, 10 mM epsilon-aminocaproic acid, 1 mM leueptine) and the sample homogenized for one minute with an Ultra Turrax Mixer (shaft #S25N-8G, Tekmar Co. Cincinnati, Ohio). The samples are then centrifuged at 48,000×g for fifteen minutes at 4° C. and the supernatant removed from the pelleted material. The extracts are diluted at least 1:50 in ELISA diluent (101 mM sodium phosphate, pH 7.4, 140 mM sodium chloride, 0.05% Tween 20, 0.02% sodium azide, 1% BSA).
A microtiter plate is coated with monoclonal antibody specific to the cucumber chitinase protein at 2 ug/ml in borate-buffered saline (100 mM boric acid, 25mM sodium borate, 75 mM sodium chloride; pH 8.5) using 50 ul per well. The plate is incubated overnight at 4° C. The plate is washed with ELISA wash buffer (10 mM Tris-HCl, pH 8.0, 0.05% Tween 20, 3 mM sodium azide) and BSA blocking solution (10 mM sodium phosphate, pH 7.4, 140 mM sodium chloride, 0.02% sodium azide, 1% BSA) is added to completely cover each well. Incubation is for at least 30 minutes at room temperature.
The microtiter plate is washed with ELISA wash buffer and 50 ul of extract is added to the appropriate well. 50 ul of each of 10 chitinase protein standards (ranging from 0 ng/ml to 31.64 ng/ml) was also added to the appropriate well and the plate is incubated for two hours at 4° C. The plate is washed with ELISA wash buffer and 50 ul of rabbit polyclonal antibody to the cucumber chitainase protein (diluted 1:15,000 in ELISA diluent) is added to the well and incubated for one hour at 37° C. After washing with ELISA wash buffer, 50 ul of goat anti-rabbit conjugated to alkaline phosphatase (1:500 in ELISA diluent) is added to each well and incubated at 37° C. for one hour. The plate is then washed and 50 ul alkaline phosphatase substrate solution (0.6 mg/ml p-nitrophenyl phosphate in 0.5 mM magnesium chloride and 10% diethanolamine) is added to each well. After a 30 minute incubation at room temperature, 50 ul of 3N sodium hydroxide is added to each well to stop the reaction.
The plate is read at 405 nm and 492 nm on an HP Genenchem ELISA plate reader. The output values are expressed as A(405 nm)-A(492 nm)−0.092 to allow for correction of p-nitrophenyl phosphate as substrate. The chitinase standards for each plate are graphed logarithmically. The amount of chitinase protein in each sample is determined from the standard curve. If the amount of chitinase in any sample is close to the upper limit of the curve, the sample is assayed again at a greater dilution. Final results are expressed in the table below in ug chitinase per gram tissue.

[2] = tested on: chemically regulatable chimeric genes coding for GUS, AHAS or BT; assay: Primer extension assay for mRNA of chemically regulatable chimeric genes; format: in vivo; settings: callus or regenerated plant material from transgenic plants; level proportional to amount of regulator applied
Procedure: 50 g of total RNA is lyophilized in a 500 l Eppendorf tube. The RNA is resuspended in 30 l of radiolabeled probe solution and heated to 70′ C. for 10 minutes. The tube is slowly cooled to 37° C. and allowed to incubate overnight. Without removing the tube from the 37° C. water bath, 2 l of 10×reverse-transcriptase buffer (500 mM Tris-HCl, pH 7.5, 400 mM KCl, 30 mM MgCl2), 1 l 5 mg/ml bovine serum albumin, 5 l 100 mM dithiothreitol, 5 l 10×dNTPs (10 mM of each dNTP in H2O), 3 l H 20, 2 l RNasin (80 units), and 2 l reverse transcriptase (400 units) are added and the reaction is incubated at 37° C. for 30 minutes. To stop the reaction, 5 l of 3 M sodium acetate, pH 5, and 150 l absolute ethanol are added. The tube is left at −20° C. for 30 minutes, the precipitate is collected by centrifugation, washed with 80% ethanol and allowed to air-dry. The precipitate is resuspended in 10-20 l of loading dye (90% formamide, 0.05% bromophenol blue, 0.05% xylene cyanol, 1 mM EDTA) and the extension products are separated on a 6% sequencing gel (Maniatis, T. et al., supra). Extension products are visualized by autoradiography.
Plant materials induced and harvested as in Examples 140 to 142 are assayed for the induction of mRNA species by the isolation of RNA and the primer extension assay as described in Example 6.
The level of mRNA is proportional to the amount of regulator applied.

O=C(O)c1ccccc1O [Salicylic acid, salicylic acid]
0.047 ug chitinase/g tissue: ELISA ASSAY RESULTS (ug chitinase/g tissue) ([1]; line Sal-4 (2001/SalChit), seven days, water —, buffer —)
0.760 ug chitinase/g tissue: ELISA ASSAY RESULTS (ug chitinase/g tissue) ([1]; line Bam-19 (2001/BamChit), seven days, water —, buffer —)
0.522 ug chitinase/g tissue: ELISA ASSAY RESULTS (ug chitinase/g tissue) ([1]; line Bam-9 (2001/BamChit), seven days, water —, buffer —) | ELISA ASSAY RESULTS (ug chitinase/g tissue) ([1]; line Bam-25 (2001/BamChit), seven days, water —, buffer —)
0.690 ug chitinase/g tissue: ELISA ASSAY RESULTS (ug chitinase/g tissue) ([1]; line Bam-16 (2001/BamChit), seven days, water —, buffer —)
0.093 ug chitinase/g tissue: ELISA ASSAY RESULTS (ug chitinase/g tissue) ([1]; line Bam-10 (2001/BamChit), seven days, water 0.059, buffer 0.084)
—: ELISA ASSAY RESULTS (ug chitinase/g tissue) ([1]; line Bam-1 (2001/BamChit), leaves harvested after seven days, water 0.066, buffer —) | ELISA ASSAY RESULTS (ug chitinase/g tissue) ([1]; line Bam-3 (2001/BamChit), seven days, water —, buffer —) | ELISA ASSAY RESULTS (ug chitinase/g tissue) ([1]; line Bam-4 (2001/BamChit), seven days, water —, buffer —) | ELISA ASSAY RESULTS (ug chitinase/g tissue) ([1]; line Bam-8 (2001/BamChit), seven days, water —, buffer —) | ELISA ASSAY RESULTS (ug chitinase/g tissue) ([1]; line Bam-12 (2001/BamChit), seven days, water —, buffer —) | ELISA ASSAY RESULTS (ug chitinase/g tissue) ([1]; line Bam-14 (2001/BamChit), seven days, water —, buffer —) | ELISA ASSAY RESULTS (ug chitinase/g tissue) ([1]; line Bam-15 (2001/BamChit), seven days, water —, buffer —) | ELISA ASSAY RESULTS (ug chitinase/g tissue) ([1]; line Bam-17 (2001/BamChit), seven days, water —, buffer —) | ELISA ASSAY RESULTS (ug chitinase/g tissue) ([1]; line Bam-21 (2001/BamChit), seven days, water —, buffer —) | ELISA ASSAY RESULTS (ug chitinase/g tissue) ([1]; line Bam-23 (2001/BamChit), seven days, water —, buffer —) | ELISA ASSAY RESULTS (ug chitinase/g tissue) ([1]; line Bam-24 (2001/BamChit), seven days, water —, buffer —) | ELISA ASSAY RESULTS (ug chitinase/g tissue) ([1]; line Bam-26 (2001/BamChit), seven days, water —, buffer —) | ELISA ASSAY RESULTS (ug chitinase/g tissue) ([1]; line Nco-2 (2001/NcoChit), seven days, water —, buffer —) | ELISA ASSAY RESULTS (ug chitinase/g tissue) ([1]; line Nco-3 (2001/NcoChit), seven days, water —, buffer —) | ELISA ASSAY RESULTS (ug chitinase/g tissue) ([1]; line Nco-5 (2001/NcoChit), seven days, water —, buffer —) | ELISA ASSAY RESULTS (ug chitinase/g tissue) ([1]; line Nco-8 (2001/NcoChit), seven days, water —, buffer —) | ELISA ASSAY RESULTS (ug chitinase/g tissue) ([1]; line Nco-9 (2001/NcoChit), seven days, water —, buffer —) | ELISA ASSAY RESULTS (ug chitinase/g tissue) ([1]; line Nco-10 (2001/NcoChit), seven days, water —, buffer —) | ELISA ASSAY RESULTS (ug chitinase/g tissue) ([1]; line Nco-11 (2001/NcoChit), seven days, water —, buffer —) | ELISA ASSAY RESULTS (ug chitinase/g tissue) ([1]; line Nco-15 (2001/NcoChit), seven days, water —, buffer —) | ELISA ASSAY RESULTS (ug chitinase/g tissue) ([1]; line Nco-17 (2001/NcoChit), seven days, water —, buffer —) | ELISA ASSAY RESULTS (ug chitinase/g tissue) ([1]; line Sal-2 (2001/SalChit), seven days, water —, buffer —) | ELISA ASSAY RESULTS (ug chitinase/g tissue) ([1]; line Sal-3 (2001/SalChit), seven days, water —, buffer —) | ELISA ASSAY RESULTS (ug chitinase/g tissue) ([1]; line Sal-5 (2001/SalChit), seven days, water —, buffer —) | ELISA ASSAY RESULTS (ug chitinase/g tissue) ([1]; line Sal-7 (2001/SalChit), seven days, water —, buffer —) | ELISA ASSAY RESULTS (ug chitinase/g tissue) ([1]; line Sal-8 (2001/SalChit), seven days, water —, buffer —) | ELISA ASSAY RESULTS (ug chitinase/g tissue) ([1]; line Sal-11 (2001/SalChit), seven days, water —, buffer —) | ELISA ASSAY RESULTS (ug chitinase/g tissue) ([1]; line Sal-12 (2001/SalChit), seven days, water —, buffer —) | ELISA ASSAY RESULTS (ug chitinase/g tissue) ([1]; line Sal-13 (2001/SalChit), seven days, water —, buffer —) | ELISA ASSAY RESULTS (ug chitinase/g tissue) ([1]; line Sal-14 (2001/SalChit), seven days, water —, buffer —) | ELISA ASSAY RESULTS (ug chitinase/g tissue) ([1]; line Sal-15 (2001/SalChit), seven days, water —, buffer —)
0.555 ug chitinase/g tissue: ELISA ASSAY RESULTS (ug chitinase/g tissue) ([1]; line Nco-16 (2001/NcoChit), seven days, water 0.555, buffer 0.566)
1.052 ug chitinase/g tissue: ELISA ASSAY RESULTS (ug chitinase/g tissue) ([1]; line Sal-9 (2001/SalChit), seven days, water —, buffer —)
elevated levels of mRNA: level of mRNA of the chimeric gene (GUS, AHAS or BT primer), primer extension assay [2]
